According to PubChem BioAssay (NCI):
Where “and” joins values, the source holds several entries; their conditions need not be identical. Equal entries are not always repeated.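 Method: 48-hour compound exposure of cells in 96-well plates, five concentrations, linear interpolation of endpoints. GI50: concentration for 50% inhibition of growth. TGI marks complete inhibition of growth.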

Each molecule was assayed on MDA-MB-468 breast (assay: DTP human tumour cell line panel, 48 h).

SMILES | GI50 | TGI
COc1ccc(F)cc1C(=O)c1cnc(NC2CCN(S(C)(=O)=O)CC2)nc1N | 3.95 µM | 9.87 µM
Cc1cccc(N=C2c3cc([N+](=O)[O-])ccc3-c3c2cc([N+](=O)[O-])cc3[N+](=O)[O-])c1 | 1.67 µM | 3.32 µM
COC(=O)Nc1nc2ccc(Oc3ccc(NC(=O)Nc4cccc(Cl)c4)cc3)cc2[nH]1 | 0.269 µM | 2.2 µM
CC/C(=C(\CC)c1ccc(OCCN(CC)CC)cc1)c1ccc(OCCN(CC)CC)cc1 | 1.59 µM | 3.64 µM
CO[C@H]1CC[C@@]2(C)C(=CC[C@H]3[C@@H]4C[C@H](O)C[C@@]4(C)CC[C@@H]32)C1 | 2.41 µM | 9.07 µM
COc1ccc(-c2nc(-c3nc4cc(C)c(C)cc4[nH]3)cc3c2[nH]c2ccccc23)cc1 | 1.99 µM | 4.78 µM
CCCCCc1ccc(S(=O)(=O)Nc2cc(-c3csc(NC(=O)CN4CCN(C)CC4)n3)ccc2N2CCN(C)CC2)cc1 | 0.901 µM | 2.02 µM
CN(C)CC1CCn2c(c(C3=C(c4cn(C)c5ccccc45)C(=O)NC3=O)c3ccccc32)C1 (stereo unspecified) | 3.51 µM | 7.57 µM
CC[C@H](C)C(=O)O[C@H]1CCC=C2C=C[C@H](C)C(CCC3C[C@@H](O)CC(=O)O3)[C@H]21 (stereo partly specified) | 5.85 µM | 30.8 µM
C/C(=C\c1ccn(-c2ccc(N)cc2)n1)[C@@H]1C[C@@H]2O[C@]2(C)CCC[C@H](C)[C@H](O)[C@@H](C)C(=O)C(C)(C)[C@@H](O)CC(=O)O1 | 0.0391 µM | 1.19 µM
O=C(Cn1ccnc1[N+](=O)[O-])NCC(F)(F)C(F)(F)F | > 100 µM | > 100 µM
NC(=O)Oc1cc(OC(N)=O)cc(N(CCCl)CCCl)c1 | 1.71 µM | 13 µM
Clc1ccc(CO/N=C(\Cn2ccnc2)c2ccc(Cl)cc2Cl)c(Cl)c1 | 1.59 µM | 3.06 µM
Cc1ccc2sc3c(NCCCNCCO)nc4ccccc4c3c(=O)c2c1 | 1.54 µM | 3.16 µM
COc1cc2c3c(n(C4CCNCC4)c(=O)c2cc1OC)-c1cc2c(cc1C3=O)OCO2 | 0.455 µM | 1.85 µM
CN1CCN(Cc2ccc(NC(=O)c3cncc(C#Cc4c(N)ncc5cc(F)ccc45)c3)cc2C(F)(F)F)CC1 | 6.3 µM | 15.4 µM
COC(=O)c1c2c(c(C)[n+]([O-])c1C)C(=O)C(NCc1ccc(F)c(F)c1)=CC2=O | 1.16 µM | 3.07 µM
O=C1/C(=C/c2ccc(Cl)cc2)CN(C(=O)C(Cl)Cl)C/C1=C\c1ccc(Cl)cc1 | 0.182 µM | 0.376 µM
CCOC(=O)c1c(Cl)c2c(n1Cc1cc(OC)cc(OC)c1)-c1oncc1CCC2 | 0.526 µM | > 100 µM
[N-]=[N+]=CC(=O)OCC(N)C(=O)O (stereo unspecified) | 1.21 µM | 11.1 µM

SMILES | GI50 | TGI
COc1ccc(Nc2ccnc(NCCCNc3ccnc4cc(Cl)ccc34)n2)cc1 | 0.871 µM | 2.42 µM
Cn1cc(C2=C(c3c4n(c5ccccc35)CCC(CN)CC4)C(=O)NC2=O)c2ccccc21 (stereo unspecified) | 3.72 µM | 7.51 µM
Cc1ccc(C(=O)NC2CCCCC2)cc1-c1ccc(C(=O)NCC2CC2)cc1 | > 23.6 µM | > 25 µM
CN1CCN(Cc2ccc(Nc3ncc(Cl)c(Nc4ccccc4S(=O)(=O)N(C)C)n3)cc2)CC1 | 0.0525 µM | 0.268 µM
O=C(Nc1ccc(Br)c(Cl)c1)c1cc(F)ccc1O | 0.942 µM | 3.35 µM
C#C[C@@]1(O)[C@@H](CO)O[C@@H](n2cc(F)c3c(N)ncnc32)[C@@H]1O | 0.301 µM | 1.53 µM
CCN1CCN(S(=O)(=O)c2oc(-c3ccc(Cl)cc3)nc2C#N)CC1 | 2.21 µM | 5.16 µM
C=C[C@]1(C)C=C2C(=O)[C@@]3(O)OC(=O)[C@@]4(CCCC(C)(C)[C@H]34)[C@@]2(O)CC1 | 0.414 µM | 2 µM
CO[C@H](C(=O)N[C@@H](CCCCNC(=O)OCc1ccccc1)C(=O)OC(C)(C)C)[C@@H]1Cc2cc3cc(OC4CC(OC5CC(O)C(O)C(C)O5)C(O)C(C)O4)c(C)c(O)c3c(O)c2C(=O)[C@H]1OC1CC(OC2CC(OC3CC(C)(O)C(O)C(C)O3)C(O)C(C)O2)C(O)C(C)O1 (stereo partly specified) | 0.764 µM | 2.92 µM
COc1cnc2c(c1)C(=O)c1c-2n(CCCN2CCN(C)CC2)c(=O)c2cc(Cl)ccc12 | 1.19 µM | 14.8 µM
Cc1ccc(S(=O)(=O)n2cc(C(=O)C(=O)Nc3ccncc3)c3ccccc32)cc1 | 1.1 µM | 9.53 µM
Cc1ccc(NC(=O)c2ccnc(N3CCCC3)c2)cc1-c1ccc(C(=O)NCC2CC2)cc1 | > 25 µM | > 25 µM
O=C(O)CCC1CCC(c2cc(F)ccc2F)(S(=O)(=O)c2ccc(Cl)cc2)CC1 (stereo unspecified) | 13.1 µM and 45.3 µM | 52.5 µM and > 100 µM
CCNc1nc(N2CC(=O)Nc3cc(OC)ccc32)c2ccccc2n1 | 0.00026 µM | –
COc1cc(C(=O)n2nc(N3CCN(C)CC3)c3cc(N)ccc32)cc(OC)c1OC | 2.97 µM | 9.38 µM
COc1cccc2c1c1nc3cc(C)c(C)cc3nc1n2CCN(C)C | 1.54 µM | 4.14 µM
O=C1/C(=C/C(Cl)=C/c2ccccc2)SC(=S)N1CCc1ccc(O)cc1 | 1.89 µM | 6.04 µM
COC(=O)[C@@H](C)C[C@H](Cc1ccccc1)NC(=O)c1csc([C@@H](C[C@H](C(C)C)N(C)C(=O)[C@@H](NC(=O)[C@H]2CCCCN2C)C(C)C)OC(C)=O)n1 | – | > 25 µM
CCCCCCCCCCCCCCCCOCCCOP(=O)(O)C1CCCN(O)C1=O (stereo unspecified) | 2.57 µM | 9.93 µM
